Reference: US20040248257A1, “SPEX compositions and methods of use” (The Scripps Research Institute, priority 2003, published 2004)

Legend:
mSPEX mRNA expression = conditions: murine cells; 10 μM U0126; cultured DP thymocytes; one experiment
Method: (§1) The expression of mSPEX and hSPEX mRNAs is compared in cultured DP thymocytes in the presence or absence of stimulation with PMA and ionomycin and in the presence or absence of a MEK inhibitor (10 μM U0126).

hSPEX mRNA expression = conditions: human cells; 10 μM U0126; cultured DP thymocytes; one experiment
Method: as §1

Structure (SMILES): N#CC(=C(/N)Sc1ccccc1N)/C(C#N)=C(\N)Sc1ccccc1N [U0126]
- inhibition of the increase of SPEX mRNA expression observed with PMA and ionomycin stimulation (mSPEX mRNA expression): approximately 70%
- inhibition of the increase of SPEX mRNA expression observed with PMA and ionomycin stimulation (hSPEX mRNA expression): approximately 70%
